Data from article PMC4183655, “Discovery and Optimization of Small-Molecule Ligands for the CBP/p300 Bromodomains” (Journal of the American Chemical Society, 2014).
Where two headings read alike, the source gives them in different places. One block for each compound: values may come before it.

Key:
[1] = target: T1, BRD4(1) (Homo sapiens, UniProt O60885); assay: DSF (ΔTm) thermal stability assay; assay type: binding; conditions: compound concentration 10 μM; mean ± SEM (number of measurements)
[2] = target: T2, CBP (Homo sapiens, UniProt Q92793); assay: DSF (ΔTm) thermal stability assay; assay type: binding; conditions: compound concentration 10 μM; mean ± SEM (number of measurements)
T2 sequence (Q92793 1085-1192 limits assumed): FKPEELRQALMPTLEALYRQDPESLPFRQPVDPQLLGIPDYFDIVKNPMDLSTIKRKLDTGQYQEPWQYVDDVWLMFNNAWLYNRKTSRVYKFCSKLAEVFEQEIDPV

[3] = target: T3, BRD9 (Homo sapiens, UniProt Q9H8M2); assay: DSF (ΔTm) selectivity panel; assay type: binding; conditions: compound 10 µM
T3 construct: using recombinant BRDs as surrogates of full-length protein
T3 sequence (Q9H8M2 136-240 limits assumed): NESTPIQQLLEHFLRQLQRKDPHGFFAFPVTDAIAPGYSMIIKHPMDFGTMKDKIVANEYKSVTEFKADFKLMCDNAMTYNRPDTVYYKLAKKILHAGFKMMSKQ

[4] = target: T1, BRD4(1); assay: Peptide displacement AlphaScreen; assay type: binding
[5] = target: T3, BRD9; assay: Peptide displacement AlphaScreen; assay type: binding
[6] = target: T2, CBP; assay: Peptide displacement AlphaScreen; assay type: binding; conditions: read-out: AlphaScreen IC50 CBP
[7] = target: T2, CBP; assay: Isothermal titration calorimetry (ITC)
[8] = target: T4, CECR2 (Homo sapiens, UniProt Q9BXF3); assay: DSF (ΔTm) selectivity panel; assay type: binding; conditions: compound 10 µM
T4 construct: using recombinant BRDs as surrogates of full-length protein
T4 sequence (Q9BXF3 434-538 limits assumed): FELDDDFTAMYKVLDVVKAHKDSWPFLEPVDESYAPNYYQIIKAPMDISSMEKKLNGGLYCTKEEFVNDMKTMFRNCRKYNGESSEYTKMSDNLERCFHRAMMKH

[9] = target: T4, CECR2; assay: Peptide displacement AlphaScreen; assay type: binding
[10] = target: T5, p300 (Homo sapiens, UniProt Q09472); assay: Peptide displacement AlphaScreen; assay type: binding
T5 sequence (Q09472 1049-1156 limits assumed): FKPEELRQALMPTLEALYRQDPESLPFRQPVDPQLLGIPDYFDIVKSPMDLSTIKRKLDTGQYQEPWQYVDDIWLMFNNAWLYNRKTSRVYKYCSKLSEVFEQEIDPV

[11] = target: T1, BRD4(1); assay: Isothermal titration calorimetry (ITC)
[12] = target: T5, p300; assay: DSF (ΔTm) thermal stability assay; assay type: binding; conditions: compound 10 µM
[13] = target: T5, p300; assay: Isothermal titration calorimetry (ITC)
[14] = target: T6, ATAD2 (Homo sapiens, UniProt Q6PL18); assay: Peptide displacement AlphaScreen; assay type: binding
T6 construct: using recombinant BRDs as surrogates of full-length protein
T6 sequence (Q6PL18 980-1092 limits assumed): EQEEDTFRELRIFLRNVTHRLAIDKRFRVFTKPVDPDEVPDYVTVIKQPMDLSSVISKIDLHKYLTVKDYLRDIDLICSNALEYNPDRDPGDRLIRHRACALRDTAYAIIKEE

[15] = target: T7, BAZ2A (Homo sapiens, UniProt Q9UIF9); assay: Peptide displacement AlphaScreen; assay type: binding
T7 construct: using recombinant BRDs as surrogates of full-length protein
T7 sequence (Q9UIF9 1793-1897 limits assumed): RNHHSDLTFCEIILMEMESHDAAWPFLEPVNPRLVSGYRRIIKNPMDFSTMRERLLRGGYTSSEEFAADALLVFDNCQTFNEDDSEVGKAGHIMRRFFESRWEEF

[16] = target: T7, BAZ2A; assay: DSF (ΔTm) thermal stability assay; assay type: binding; conditions: compound 10 µM
[17] = target: T6, ATAD2; assay: DSF (ΔTm) thermal stability assay; assay type: binding; conditions: compound 10 µM
[18] = target: PAF (h) (Homo sapiens, UniProt P25105); assay: Cerep profiling, agonist radioligand
PAF (h), sequence (P25105 whole entry): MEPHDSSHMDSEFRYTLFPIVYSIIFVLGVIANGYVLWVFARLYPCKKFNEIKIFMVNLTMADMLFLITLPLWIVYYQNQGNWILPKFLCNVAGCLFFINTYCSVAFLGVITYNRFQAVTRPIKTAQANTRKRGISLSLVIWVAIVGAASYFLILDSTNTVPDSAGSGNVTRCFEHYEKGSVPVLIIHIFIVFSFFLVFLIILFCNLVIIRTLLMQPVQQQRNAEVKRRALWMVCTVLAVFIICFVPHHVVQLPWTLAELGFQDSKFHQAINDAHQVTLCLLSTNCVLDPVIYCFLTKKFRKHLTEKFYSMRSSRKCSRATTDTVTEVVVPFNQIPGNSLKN

[19] = Cytotoxicity assay; conditions: human, U2OS osteosarcoma cells
[20] = test system: GFP-tagged 3 × CBP BRD construct; assay: Fluorescence recovery after photo-bleaching (FRAP) assay; conditions: HeLa cells, SAHA-treated, compound 0.1 μM
[21] = Human liver microsome (HLM) stability assay; assay type: in vitro ADME; conditions: microsomes, 1 h
[22] = target: T8, BRD3(1) (Homo sapiens, UniProt Q15059); assay: DSF (ΔTm) selectivity panel; assay type: binding; conditions: compound 10 µM
T8 construct: using recombinant BRDs as surrogates of full-length protein
T8 sequence (Q15059 34-140 limits assumed): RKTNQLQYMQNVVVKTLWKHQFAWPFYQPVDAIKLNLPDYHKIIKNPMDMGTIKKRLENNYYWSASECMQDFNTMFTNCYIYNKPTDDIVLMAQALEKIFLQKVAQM

[23] = target: T9, alpha 2C (h) (Homo sapiens, UniProt P18825); assay: Cerep profiling, antagonist radioligand; assay type: binding
T9 construct: CEREP (BioPrint Full Panel, contract assay)
T9 sequence (P18825 whole entry): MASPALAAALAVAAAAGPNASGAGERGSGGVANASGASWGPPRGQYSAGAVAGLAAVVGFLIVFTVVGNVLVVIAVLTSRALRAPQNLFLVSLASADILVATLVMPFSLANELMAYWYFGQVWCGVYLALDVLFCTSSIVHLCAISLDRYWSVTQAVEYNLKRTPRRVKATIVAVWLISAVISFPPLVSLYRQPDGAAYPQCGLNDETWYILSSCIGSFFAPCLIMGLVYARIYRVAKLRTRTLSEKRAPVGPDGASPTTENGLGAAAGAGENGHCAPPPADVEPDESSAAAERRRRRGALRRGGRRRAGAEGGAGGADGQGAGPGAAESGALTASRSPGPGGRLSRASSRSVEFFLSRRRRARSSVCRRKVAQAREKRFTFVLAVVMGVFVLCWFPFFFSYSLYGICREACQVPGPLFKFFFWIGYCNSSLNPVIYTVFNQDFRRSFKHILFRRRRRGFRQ

[24] = target: T10, BRD2(1) (Homo sapiens, UniProt P25440); assay: DSF (ΔTm) selectivity panel; assay type: binding; conditions: compound 10 µM
T10 construct: using recombinant BRDs as surrogates of full-length protein
T10 sequence (P25440 74-180 limits assumed): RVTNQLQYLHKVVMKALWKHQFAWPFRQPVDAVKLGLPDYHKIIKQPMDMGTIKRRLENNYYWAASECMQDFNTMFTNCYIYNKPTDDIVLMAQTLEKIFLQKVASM

[25] = target: T11, alpha 2A (h) (Homo sapiens, UniProt P08913); assay: Cerep profiling, antagonist radioligand; assay type: binding
T11 construct: CEREP (BioPrint Full Panel, contract assay)
T11 sequence (P08913 whole entry): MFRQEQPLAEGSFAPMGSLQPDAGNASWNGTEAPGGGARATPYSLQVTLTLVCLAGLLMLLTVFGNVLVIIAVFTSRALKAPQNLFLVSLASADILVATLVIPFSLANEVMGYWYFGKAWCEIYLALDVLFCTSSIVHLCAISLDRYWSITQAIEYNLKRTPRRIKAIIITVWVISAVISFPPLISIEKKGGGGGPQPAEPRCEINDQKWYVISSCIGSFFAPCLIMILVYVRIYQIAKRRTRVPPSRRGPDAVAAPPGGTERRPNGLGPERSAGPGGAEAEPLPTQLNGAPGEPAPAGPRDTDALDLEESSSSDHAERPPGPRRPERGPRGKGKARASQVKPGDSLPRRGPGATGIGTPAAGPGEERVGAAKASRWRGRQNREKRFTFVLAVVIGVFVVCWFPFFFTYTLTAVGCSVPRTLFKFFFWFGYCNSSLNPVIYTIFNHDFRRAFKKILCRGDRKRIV

[26] = target: T12, PDE5 (h) (non-selective) (Homo sapiens, UniProt O76074); assay: Cerep profiling; assay type: biochemical
T12 construct: CEREP (BioPrint Full Panel, contract assay)

[27] = test system: p53-driven luciferase activity in RKO cells; assay: p53 luciferase reporter assay; assay type: cell-based, human; conditions: compound 24 h then doxorubicin 0.3 μM 16 h, read-out: Inhibition of doxorubicin-induced p53-driven luciferase activity IC50
Experimental: Refinement was carried out in
refinement cycles. […] The
Cell culture and reagents
Fluorescence Recovery After Photobleaching (FRAP) Assay
In brief RKO cells were transfected with
well plate format using Fugene HD (Roche).
Compounds were dissolved in dimethyl sulfoxide
5 ul of compound solution was added
mixing plates returned to the incubator.

ΔTm at 10 µM [1]: 2.7 °C
ΔTm at 10 µM [2]: 5.4 °C
ΔTm at 10 µM [3]: 1.5 °C
IC50 [4]: 9.1 µM
IC50 [5]: 100 µM
IC50 [6]: 0.84 µM
SMILES: Cc1noc(C)c1-c1ccc2c(c1)nc(CCc1ccccc1)n2CCN1CCCC1 [Compound 15]

ΔTm at 10 µM [1]: 2.7 °C
ITC N (molar binding ratio of the ligand-protein interaction), CBP [7]: 1.00 ± 0.00223
ITC ∆G, CBP [7]: -8.66 kcal/mol
ITC ∆H, CBP [7]: -5.76 ± 0.0184 kcal/mol
ITC 9T∆S, CBP ([7]; At T = 298.15 K): -2.90 kcal/mol
Kd ([7]; ITC Ka, CBP): 0.323 µM
ΔTm at 10 µM [2]: 6.5 °C
ΔTm at 10 µM [8]: 1 °C
IC50 [9]: 12 µM
IC50 [10]: 0.14 µM
ITC N (molar binding ratio of the ligand-protein interaction), BRD4(1) [11]: 1.10 ± 0.005
ITC ∆G, BRD4(1) [11]: -8.01 kcal/mol
ITC ∆H, BRD4(1) [11]: -5.86 ± 0.0338 kcal/mol
ITC 9T∆S, BRD4(1) ([11]; At T = 298.15 K): -2.15 kcal/mol
Kd ([11]; ITC Ka, BRD4(1)): 0.952 µM
IC50 [4]: 2.4 µM
ΔTm at 10 µM [12]: 7.9 °C
ITC N (molar binding ratio of the ligand-protein interaction), p300 [13]: 1.00 ± 0.0028
ITC ∆G, p300 [13]: -8.60 kcal/mol
ITC ∆H, p300 [13]: -6.09 ± 0.0245 kcal/mol
Kd [13]: 0.347 µM
ITC 9T∆S, p300 ([13]; At T = 298.15 K): -2.51 kcal/mol
IC50 [5]: > 25 µM
IC50 [6]: 0.18 µM
SMILES: Cc1noc(C)c1-c1ccc2c(c1)nc(CCc1ccccc1)n2CCN1CCCCC1 [Compound 16]

ΔTm at 10 µM [1]: 1.2 °C
IC50 [14]: 19 µM
ΔTm at 10 µM [2]: 2 °C
IC50 [15]: 14 µM
IC50 [4]: 4.1 µM
ΔTm at 10 µM [16]: -0.52 °C
ΔTm at 10 µM [17]: 0.03 °C
IC50 [6]: 2 µM
SMILES: Cc1noc(C)c1-c1ccc2c(c1)nc(CCc1ccccc1)n2CCN1CCN(C)CC1 [Compound 18]

SMILES: COc1ccc(CCc2nc3cc(-c4c(C)noc4C)ccc3n2C[C@H](C)N2CCOCC2)cc1Cl [Compound 59]
ΔTm at 10 µM [1]: 1 to 2 °C
IC50 [18]: 0.54 µM
CC50 at 24 h [19]: 80 µM
CC50 at 72 h [19]: 8.1 µM
FRAP half-time of fluorescence recovery (t1/2), GFP-tagged 3× CBP BRD [20]: 0.60 s
HLM stability: compound detected after 60 min [21]: no compound was detected
ΔTm at 10 µM [22]: 1 to 2 °C
IC50 [23]: 0.11 µM
ΔTm at 10 µM [24]: 1 to 2 °C
IC50 [25]: 0.57 µM
IC50 [26]: 0.15 µM
IC50 ([27]; Homo sapiens, RKO): 1.54 µM
IC50 [27]: 1.5 µM
